Ends that are not written are not given here.
Key:
diabetic db/db mice = test: In-vivo study of blood-glucose lowering effects, subcutaneous dose, diabetic db/db mice (Example 8); design: species or system mouse; conditions: for blood glucose-lowering effect: single SC dose, FIG. 13
Procedure: Male diabetic mice (BKS.Cg-+Lepr db/+Lepr db/01aHsd) were purchased from Harlan Laboratories, Ltd. (Jerusalem, Israel). The 8-9 week old animals (30-40 gm) were placed in mouse cages (two animals per cage), and allowed at least 48 hours of acclimatization before the start of the study.
The study was divided into two phases: a feasibility phase and an evaluation phase.
In carrying out the feasibility phase, several groups of mice were used wherein four mice were used in each group. Data on the baseline glucose levels were gathered for each mouse for 2-3 days prior to drug dosing. This was performed to identify any outliers in the group of animals. On the day of treatment (Day 0) each animal was weighed. A time 0 day blood sample (5 to 10 μL) was collected from the tail vein. The glucose level (mg/dL) was measured using a glucose analyzer. Each animal was then dosed subcutaneously (SC) below the skin on the back. […] The animals were then allowed to return into their cages. Blood samples of 5 to 10 μL (<0.5% of 2 mL blood volume for a 35 g mouse) were removed through a needle prick/capillary tube at the following time points: −3, −2, −1, 0, 0.04, 0.16, 0.33, 1.0, 1.16 days. Each collected blood sample was tested for its glucose level. At the end of the study, the animals were humanely euthanized by carbon-dioxide asphyxiation.
In carrying out the evaluation phase, eight mice were used in each group. Data on the baseline glucose levels were gathered for each mouse three days prior to drug dosing. On the day of treatment (Day 0) each animal was weighed. A time 0 day blood sample (5 to 10 μL) was collected from the tail vein. The glucose level (mg/dL) was measured using a glucose analyzer. Each animal was then dosed subcutaneously (SC) below the skin on the back. […] The animals were then allowed to return into their cages. Blood samples of 5 to 10 μL (<0.5% of 2 mL blood volume for a 35 g mouse) were removed through a needle prick/capillary tube at the following time points: −3, −2, −1, 0, 0.04, 0.16, 0.33, 0.5, 1, 2, 3, 6 days. Each collected blood sample was for its glucose level. […]

[1] = Lability of the conjugate on attempted further purification (Example 23); assay type: physicochemical; conditions: when attempting to further purify the conjugate
Excerpt: The conjugate rapidly hydrolyzed to native GLP-1 and a GLP-1 derivative resulting from an intramolecular ring closure reaction due to reaction at the carbamate carbonyl by the imidazolyl nitrogen of the N-terminal histidine of GLP-1. The modified GLP-1 thereby released is shown below. Further purification was not pursued.

Substance	blood glucose-lowering effect (diabetic db/db mice)	PD effect of 40 kilodalton PEG conjugate compared to 20 kilodalton PEG conjugate (diabetic db/db mice; SC 420 μg)	stability of the conjugate [1]
G2PEG2Fmoc20K-Lys-GLP-1: G2PEG2Fmoc20k-NHS covalently and releasably attached to a lysine position of GLP-1 (HAEGTFTSDVSSYLEGQAAKEFIAWLVKGRG; also: releasable G2PEG2Fmoc 20 kDa PEG on a lysine, position not given here; UniProt P01275 98-128, looked up)	confirmed		
G2PEG2Fmoc40K-Lys-GLP-1: G2PEG2Fmoc40k-NHS covalently and releasably attached to a lysine position of GLP-1 (HAEGTFTSDVSSYLEGQAAKEFIAWLVKGRG; also: releasable G2PEG2Fmoc 40 kDa PEG on a lysine, position not given here; UniProt P01275 98-128, looked up)	confirmed	small but extended PD effect	
N-terminal GLP-1 conjugate prepared by reaction with an mPEG-SBC reagent: counterpart N-terminal GLP-1 conjugate prepared by reaction with an mPEG-SBC reagent			extremely labile

Reference: patent US8580919B2, “Polymer conjugates of GLP-1” (Nektar Therapeutics, priority 2005, dated 2013)
